According to patent US20250075190A1, “DE NOVO DESIGNED LUCIFERASE” (UNIVERSITY OF WASHINGTON, priority 2022, published 2025):

Experiments:
Type in all cases: biochemical
[1] = system: LuxSit (de novo designed luciferase, SEQ ID NO:1) variant A96I; test: Michaelis-Menten kinetics of LuxSit A96I with DTZ; settings: substrate DTZ; mean (95% CI), n = 3; Tris pH 8.0
Text: (§1) Synthetic genes and oligonucleotides were purchased from Integrated DNA Technologies or GenScript. The synthetic gene was inserted between NdeI and XhoI sites of a pET29b+ vector, containing an N-terminal hexahistidine tag followed by a TEV protease cleavage site and a C-terminal stop codon. Restriction endonucleases, Q5 PCR polymerase, and T4 ligase were purchased from NEB. Plasmid DNA, PCR products, or digested fragments were purified by Qiagen DNA purification kits. DNA sequences were analyzed by Genewiz. Coelenterazine (CTZ) was purchased from Gold Biotechnology. Diphenylterazine (DTZ), pyridyl diphenylterazine (8pyDTZ), and Furimazine (FRZ) were purchased from MedChemExpress. […] DNA and protein concentrations were determined by a NanoDrop™ small-volume 8 channel UV/vis spectrometer. […] All luminescence measurements were acquired by a Biotek Synergy Neo2T™ Multi-Mode Plate Reader. To convert relative arbitrary unit (RLU) to the number of photons, Neo2 plate reader was calibrated by determining the chemiluminescence of luminol with known quantum yield in the presence of horseradish peroxidase and hydrogen peroxide in K2CO3 aqueous solution as previously described^45. SDS PAGE and luminescence images were captured by a Bio-Rad ChemiDocT™ XRS+. Images were analyzed using the Fiji image analysis software. […]

[2] = system: LuxSit (de novo designed luciferase, SEQ ID NO:1) variant M110C; test: Michaelis-Menten kinetics of LuxSit M110C with DTZ; settings: substrate DTZ; mean (95% CI), n = 3; Tris pH 8.0
Text: as §1

[3] = system: LuxSit-f (de novo designed luciferase; LuxSit variant A96M/M110V, 60R/96M/98H/110V; SEQ ID NO:3); test: Michaelis-Menten kinetics of LuxSit-f with DTZ; settings: substrate DTZ; for Km / Vmax: Tris pH 8.0
Text: (§2) Synthetic genes and oligonucleotides were purchased from Integrated DNA Technologies or GenScript. The synthetic gene was inserted between NdeI and XhoI sites of a pET29b+ vector, containing an N-terminal hexahistidine tag followed by a TEV protease cleavage site and a C-terminal stop codon. Restriction endonucleases, Q5 PCR polymerase, and T4 ligase were purchased from NEB. Plasmid DNA, PCR products, or digested fragments were purified by Qiagen DNA purification kits. DNA sequences were analyzed by Genewiz. Coelenterazine (CTZ) was purchased from Gold Biotechnology. Diphenylterazine (DTZ), pyridyl diphenylterazine (8pyDTZ), and Furimazine (FRZ) were purchased from MedChemExpress. All other coelenterazine analogs (bis-CTZ: bisdeoxycoelenterazine; f-CTZ: f-Coelenterazine; e-CTZ: e-Coelenterazine-F; PP-CTZ: methoxy e-Coelenterazine; v-CTZ: v-Coelenterazine. All other chemicals were purchased from Sigma-Aldrich or Fisher Scientific and used without further purification. To identify the molecular mass of each protein, intact mass spectra were obtained via reverse-phase LC/MS on an Agilent 6230B TOF on an AdvanceBio RP-Desalting column and subsequently deconvoluted by Bioconfirm software using a […] algorithm. AKTA pure M with UNICORN 6.3.2 Workstation control (GE Healthcare) coupled with a Superdex™ 75 Increase 10/300 GL column was used for size exclusion chromatography. DNA and protein concentrations were determined by a NanoDrop™ small-volume 8 channel UV/vis spectrometer. CD spectra and CD melting experiments were performed by the default setting on a J-1500 Circular Dichroism Spectropolarimeter (Jasco). All luminescence measurements were acquired by a Biotek Synergy Neo2T™ Multi-Mode Plate Reader. To convert relative arbitrary unit (RLU) to the number of photons, Neo2 plate reader was calibrated by determining the chemiluminescence of luminol with known quantum yield in the presence of horseradish peroxidase and hydrogen peroxide in K2CO3 aqueous solution as previously described^45. SDS PAGE and luminescence images were captured by a Bio-Rad ChemiDocT™ XRS+. Images were analyzed using the Fiji image analysis software.
(§3) Lemo21(DE3) strain was used for transformation with the pET29b+ plasmid encoding the gene of interest. Transformed cells were grown for 12 h in TB medium supplemented with kanamycin. Cells were inoculated at 1:50 ratio in 100 mL fresh TB medium, grown at 37° C. for 4 h, and then induced by IPTG for an additional 18 h at 16° C. Cells were harvested by centrifugation at 4,000 g for 10 min and resuspended in 30 mL lysis buffer (20 mM Tris-HCl pH 8.0, 300 mM NaCl, 30 mM imidazole, and Pierce™ Protease Inhibitor Tablets). Cell resuspensions were lysed by sonication for 5 min (10 s per cycle). Lysates were clarified by centrifugation at 24,000 g at 12° C. for 40 min and pre-equilibrated with 1 mL of Ni-NTA nickel agarose at 4° C. for 1 h. The resin was washed twice with 10 mL wash buffer and then eluted in 1 mL elution buffer (20 mM Tris-HCl pH 8.0, 300 mM NaCl, 300 mM imidazole). The eluted proteins were purified by size exclusion chromatography in PBS. Fractions were collected based on A280 trace, snap-frozen in liquid nitrogen, and stored at −80° C.,
(§4) To create libraries of each single amino acid substitution at residues 13, 14, 17, 18, 35, 37, 38, 49, 52, 53, 56, 60, 65, 81, 83, 94, 96, 98, 100, 110, and 112, forward oligos mixture with degenerate codons (NDT, VHG, and TGG=1:1:0.1 ratio) and an overlapped reverse oligo were used to amplify the plasmid of LuxSit. The resulting PCR products were circularized by Gibson Assembly protocol and were subsequently used to transform ElectroMAX™ DH10B Cells. The cells were plated on 150 mm×15 mm LB agar plates supplemented with carbenicillin and L-arabinose, incubated at 37° C. overnight, and left at 4° C. for another 24 h. As described in the screening of luciferase libraries, colony-based screening by spraying DTZ solution was used to identify active colonies. […]. […]

[4] = system: LuxSit (de novo designed luciferase, SEQ ID NO:1) variant A96M; test: Michaelis-Menten kinetics of LuxSit A96M with DTZ; settings: substrate DTZ; mean (95% CI), n = 3; Tris pH 8.0
Text: as §1

[5] = system: LuxSit-i (de novo designed luciferase; LuxSit variant R60S/A96L/M110V, 60S/96L/98H/110V; SEQ ID NO:2); test: Michaelis-Menten kinetics of LuxSit-i with DTZ; settings: substrate DTZ; for Km / Vmax: Tris pH 8.0
Text: as §2, §3, §4

[6] = system: LuxSit (de novo designed luciferase, SEQ ID NO:1) variant Y14E; test: Michaelis-Menten kinetics of LuxSit Y14E with DTZ; settings: substrate DTZ; mean (95% CI), n = 3; Tris pH 8.0
Text: as §1

[7] = system: LuxSit (de novo designed luciferase, SEQ ID NO:1) variant R60C; test: Michaelis-Menten kinetics of LuxSit R60C with DTZ; settings: substrate DTZ; mean (95% CI), n = 3; Tris pH 8.0
Text: as §1

[8] = system: LuxSit (de novo designed luciferase, SEQ ID NO:1) variant H98N; test: Michaelis-Menten kinetics of LuxSit H98N with DTZ; settings: substrate DTZ; mean (95% CI), n = 3; Tris pH 8.0
Text: as §1

[9] = system: LuxSit (de novo designed luciferase, parent, 60R/96A/98H/110M; SEQ ID NO:1); test: Michaelis-Menten kinetics of LuxSit (parent) with DTZ; settings: substrate DTZ; mean (95% CI), n = 3; Tris pH 8.0
Text: as §1

SMILES: O=c1c(Cc2ccccc2)nc2c(-c3ccccc3)[nH]c(-c3ccccc3)cn1-2 [DTZ, Diphenylterazine]
- Km [1]: 17.5 µM
- Vmax [1]: 1.3(1.1-1.5) ×10^−2 photon s^−1 molecule^−1
- Km [2]: 67.5 µM
- Vmax [2]: 0.4(0.3-0.6) ×10^−2 photon s^−1 molecule^−1
- apparent Michaelis constant KM ([3]; in words (FIG. 3a)): low μM range
- Km ([3]; 100 nM enzyme, Table 3): 8.9 µM
- Vmax ([3]; 100 nM enzyme, Table 3): 0.20 photon s^−1 molecule^−1
- kcat ([3]; kcat=Vmax/LQY, Table 3): 1.8 s⁻¹
- Km ([3]; mean (95% CI), n = 3, Table 4): 8.9 µM
- Vmax ([3]; mean (95% CI), n = 3, Table 4): 19.7(17.9-21.9) ×10^−2 photon s^−1 molecule^−1
- Km [4]: 4.8 µM
- Vmax [4]: 6.0(5.3-6.9) ×10^−2 photon s^−1 molecule^−1
- apparent Michaelis constant KM ([5]; in words (FIG. 3a)): low μM range
- Km ([5]; 100 nM enzyme, Table 3): 2500 nM
- Vmax ([5]; 100 nM enzyme, Table 3): 0.36 photon s^−1 molecule^−1
- kcat ([5]; kcat=Vmax/LQY, Table 3): 2.5 s⁻¹
- Km ([5]; mean (95% CI), n = 3, Table 4): 2500 nM
- Vmax ([5]; mean (95% CI), n = 3, Table 4): 36.1(33.7-38.6) ×10^−2 photon s^−1 molecule^−1
- Km [6]: 12.6 µM
- Vmax [6]: 0.19(0.17-0.21) ×10^−2 photon s^−1 molecule^−1
- Km [7]: 45.2 µM
- Vmax [7]: 0.57(0.44-0.8) ×10^−2 photon s^−1 molecule^−1
- Km [8]: 29.3 µM
- Vmax [8]: 0.17(0.15-0.2) ×10^−2 photon s^−1 molecule^−1
- Km [9]: 18.3 µM
- Vmax [9]: 0.32(0.29-0.37) ×10^−2 photon s^−1 molecule^−1
